According to patent US20110281808A1, “Composition and Method for Increasing Pre Workout Thermogenics” (ALLMAX NUTRITION INC., priority 2010, published 2011):

What was measured:
[1] = oral administration of 500 mg hordenine to horses; cited from earlier work
[2] = after ingestion, horses; cited from earlier work
central nervous system = conditions: cats under anaesthesia; cited from earlier work
[3] = humans, from grapefruit juice; cited from earlier work
[4] = oral administration of naringin with Yerba Mate, half life of caffeine and thermogenesis; format: in vivo; conditions: oral administration together with Yerba Mate (source of caffeine)

CN(C)CCc1ccc(O)cc1 [hordenine, N,N-dimethyl-4-hydroxyphenylethylamine]
heart rate [1]: slight increase in heart rate
half-life [2]: 24 min
muscle tone / spinal cord stimulation (central nervous system): increases muscle tone

O=C1C[C@@H](c2ccc(O)cc2)Oc2cc(O)cc(O)c21 [naringenin]
bioavailability [3]: bioavailable from grapefruit juice

C[C@@H]1O[C@@H](O[C@H]2[C@H](Oc3cc(O)c4c(c3)O[C@H](c3ccc(O)cc3)CC4=O)O[C@H](CO)[C@@H](O)[C@@H]2O)[C@H](O)[C@H](O)[C@H]1O [naringin, 4′, 5,7-tri-hydroxyflavonone 7-rhamno-glucoside]
effect on half life of caffeine and thermogenesis [4]: acts synergistically with Yerba Mate
